From patent US20240374578A1, “USE OF MEDICINE FOR REDUCING IRON CONTENT IN BRAIN IN PREPARATION OF DRUG FOR TREATING AND/OR PREVENTING NEUROPSYCHIATRIC DISEASES” (SOOCHOW UNIVERSITY, priority 2022, published 2024)

Tested on: morphine addiction in mice
Experiment: Morphine conditioned place preference scoring of mice
Format: in vivo, C57BL/6J mice
Conditions: 6 h before morphine 20 mg/kg/day i.p., 7 days, vs morphine group

Cc1c(O)c(=O)ccn1C [Deferiprone, 3-hydroxy-1,2-dimethyl-4-(1H)-pyridone]
preference score on morphine-paired side (Deferiprone 13 mg/mL, 1 μL into dorsal hippocampus, FIG. 5): significantly reduced

O=C(O)CNC(=O)c1ncc(-c2cccc(Cl)c2)cc1O [Vadadustat]
preference score on morphine-paired side (Vadadustat 10 mg/kg/day i.p., FIG. 4): significantly reduced
